According to patent US20090269796A1, “METHODS OF DETECTING AND TREATING MYOCARDIAL ISCHEMIA AND MYOCARDIAL INFARCTION” (THE GENERAL HOSPITAL CORPORATION, priority 2007, published 2009):

system: Neonatal rat cardiomyocytes; assay: Hypoxia-induced apoptosis (annexin V) of cardiomyocytes pretreated with individual metabolites; format: cell-based; conditions: metabolite added 5 minutes before 3 hours hypoxia; lowest concentration screened; annexin V-positive cells; FIG. 6
Method: Neonatal rat cardiomyocytes were treated with individual metabolites previously identified using planned MI metabolomics. In the first, metabolites that are increased in the peripheral blood and/or the coronary sinus samples were prioritized. Neonatal cardiomyocytes were isolated from 1-day old rats, cultured for three days, and then challenged in a hypoxia chamber (<0.5% O2, 95% nitrogen and 5% CO2 at 37° C.) for 3 hours, as previously described.^18 Baseline apoptosis is typically ˜10%, which increases to ˜30% following hypoxic challenge, as assessed by FITC-conjugated annexin V staining. Metabolites at the indicated concentrations were added to experimental plates 5 minutes prior to the onset of hypoxia. Metabolites were examined at ˜2 fold reported blood concentrations (where available), as well as at one log increased concentration (see also Human Metabolomics Database, HMDB, at http://www.hmdb.ca). 30 minutes after reoxygenation, the number of annexin V-positive cells per five HPF was counted from n=3 culture plates. The data depicted represent the percent change in apoptosis relative to the hypoxia control for the lowest concentration of each metabolite screened. (*P<0.05 by unpaired student's t test). […] Accordingly, one would seek to inhibit the metabolite in question as part of treatment or prevention scheme.
Accordingly, one would seek to administer the metabolite in question as part of treatment or prevention scheme. Such metabolites include, according to FIG. 6, G3P, inosine, malonic acid, TMNO, and orotic acid. Alternatively, one could administer a compound that upregulates a pathway that results in the production of the metabolite in question.

Compound | Mean % change in apoptosis vs. hypoxia control
O=P(O)(O)OCC(O)CO (stereo not drawn) [Glycerol-3-P, glycerol-3-phosphate] | reduces cell death
O=c1[nH]cnc2nc[nH]c12 [Hypoxanthine] | potentiates cell death
OC[C@H]1O[C@@H](n2cnc3c(O)ncnc32)[C@H](O)[C@@H]1O [Inosine] | reduces cell death
O=C(O)CC(=O)O [Malonic Acid] | reduces cell death
O=C(O)c1cc(=O)[nH]c(=O)[nH]1 [Orotic Acid] | reduces cell death
O=C(O)CCC(=O)O [Succinic Acid] | potentiates cell death
NCCS(=O)(=O)O [Taurine] | potentiates cell death
C[N+](C)(C)[O-] [Trimethylamine-N-Oxide] | reduces cell death

system: not listed separately; assay: Metabolite changes in peripheral plasma after planned MI (alcohol septal ablation), LC-MS/MS profiling; format: in vivo, human; conditions: FIG. 3, lower panel
Source text: A total of 36 patients undergoing planned MI using alcohol septal ablation for the treatment of symptomatic hypertrophic obstructive cardiomyopathy (HOCM) were included. Inclusion criteria for the cohort were: 1) primary HOCM; 2) septal thickness of 16 mm or greater; 3) resting outflow tract gradient of greater than 30 mmHg, or an inducible outflow tract gradient of at least 50 mm Hg; 4) symptoms refractory to optimal medical therapy; and 5) appropriate coronary anatomy. The most proximal accessible septal branch was instrumented using standard angioplasty guiding catheters and guidewires and 1.5 or 2.0 mm×9 mm Maverick™ balloon catheters. Radiographic and echocardiographic contrast injections confirmed proper selection of the septal branch and balloon catheter position. Ethanol was infused through the balloon catheter at 1 ml per minute. Additional injections in the same or other septal branches were administered as needed, causing cessation of blood flow to the isolated myocardium, and to reduce the gradient to <20 mmHg.^16 […]
The three HPLC columns were connected in parallel via an automated switching valve on a robotic sample loader (Leap Technologies) to a triple quadrupole mass spectrometer (AB4000Q, Applied Biosystem/Sciex), operated in electrospray ionization mode using a turbo ion spray LC/MS interface. […] A total of 210 known metabolites were monitored for each sample. […]

Compound | Kinetic pattern of change in peripheral plasma after planned MI
Nc1ccccc1C(=O)O [anthanilic acid] | Later-appearing
CN(CC(=O)O)C(=N)N [creatine] | Later-appearing

system: not listed separately; assay: Simultaneous coronary sinus and peripheral plasma sampling after planned MI (13-patient subgroup), LC-MS/MS profiling; format: in vivo, human; conditions: elevated earlier in coronary sinus, FIG. 4 top panel
Method: Blood was drawn at baseline (just prior to the onset of the ablation) and at minutes, 1 hour, 2 hours, 4 hours and 24 hours following the onset of injury as depicted in FIG. 1. 13 of the 36 patients consented to the placement of a coronary sinus catheter during the ablation, allowing for the simultaneous sampling from coronary sinus and femoral catheters at the baseline, 10-minute and 1-hour time points. The coronary sinus catheter was subsequently removed prior to the patient leaving the catheterization suite.
Samples were obtained from femoral venous catheters during the procedure or, where indicated, from a catheter placed in the coronary sinus. Samples were collected in K2EDTA-treated tubes (Becton Dickinson). All blood samples were centrifuged at 2000×g for 10 minutes to pellet cellular elements. The supernatant plasma was then aliquoted and immediately frozen at −80° C. to minimize freeze-thaw degradation. Additional blood samples were sent to the clinical chemistry laboratory for evaluation of the standard cardiac markers creatine kinase (CK), CK-MB, and Troponin T (Roche Diagnostics).
The specificity of the findings described above was further examined by exploring the anatomic origin of the metabolic changes. […]

Compound | Time after injury until elevation evident in the periphery
O=P(O)(O)OCC(O)CO (stereo not drawn) [Glycerol-3-P, glycerol-3-phosphate] | 120 min
O=C(O)CC(O)C(=O)O (stereo not drawn) [Malic Acid] | 120 min
